Our source for the viability values is article PMC12040169 (PLOS Biology, 2025).

Molecules are shown by their SMILES.

The first data set can be described thus: in vitro. As to conditions: human, hela cells, % viability.
As for `COc1ccc(Oc2ccc(C=Cc3nc4sc(C(=O)O)c(C)c4c(=O)[nH]3)cc2[N+](=O)[O-])cc1` [CBK295637], the viability at 28.5 h, 10 µM turned out to be 112%.

For `CSc1nsc(SCC(=O)Nc2ccc(OC(C)=O)cc2)n1` [CBK268948], the viability at 28.5 h, 10 µM came to 88.1%.

With `O=C(Nc1ccc(N2CCN(Cc3ccccc3)CC2)cc1)c1nc[nH]n1` [CBK266960], the viability at 28.5 h, 10 µM is 105%.

Turning to `C/C(=N\NC(=O)CSc1nc2ccccc2n1Cc1ccccc1)c1ccco1` [CBK263180], the viability at 28.5 h, 10 µM worked out at 118%.

As for `CN(C)CC1CN(C(=O)Nc2ncc(Cc3ccccc3Cl)s2)CCO1` (stereo not drawn) [CBK304107], the viability at 28.5 h, 10 µM is 93.6%.

In the case of `NS(=O)(=O)c1ccc(NC(=O)c2ccc(COc3ccccc3)o2)cc1` [CBK267915], the viability at 28.5 h, 10 µM was determined as 104%.

On to `Cc1ccc(C)c(NC(=O)CN(Cc2ccc(Cl)c(Cl)c2)S(=O)(=O)c2ccccc2)c1` [CBK264191], for which the viability at 28.5 h, 10 µM is 107%.

As to `Cc1ccccc1C(=O)Nc1cccc(NC(=S)NC(=O)c2cccs2)c1` [CBK263895], the viability at 28.5 h, 10 µM was found to be 93.1%.

As to `Cc1ccccc1OC(C)C(=O)Nc1ccccc1C(=O)N1CCOCC1` (stereo not drawn) [CBK269753], the viability at 28.5 h, 10 µM worked out at 103%.

For the molecule `O=C(Cc1cccc2ccccc12)Nc1ccc(Br)cc1C(=O)O` [CBK268286], the viability at 28.5 h, 10 µM is 99.2%.

Consider `CN(C)c1ccc(-c2nccnc2NS(=O)(=O)c2ccccc2C(F)(F)F)cc1` [CBK050801], for which the viability at 28.5 h, 10 µM was found to be 92.8%.

Consider `CCn1c2ccccc2c2cc(CN3CCN(c4ccccc4OC)CC3)ccc21` [CBK261579], for which the viability at 28.5 h, 10 µM was 85.4%.

In the case of `O=C(c1ccc(-c2cnc3[nH]c(=O)n(C4CCCCC4)c3n2)cc1)N1CCOCC1` [CBK064566], the viability at 28.5 h, 10 µM came out at 106%.

In the case of `CN(C)C(CNc1cncc(-c2cccc(Cl)c2)n1)c1cccnc1` (stereo not drawn) [CBK037247], the viability at 28.5 h, 10 µM is 113%.

As to `Cc1ccccc1OCCSc1nc2ccccc2n1CCO` [CBK262523], the viability at 28.5 h, 10 µM amounted to 98.1%.

As for `CC(C)(C)OC(=O)N1CCC[C@H]([C@H](O)c2cccs2)C1` [CBK282301], the viability at 28.5 h, 10 µM was found to be 102%.

Regarding `COc1cc2c(cc1CN1CCOCC1CC(=O)O)CCC2` (stereo not drawn) [CBK307277], the viability at 28.5 h, 10 µM was determined as 102%.

With `O=C(CSc1nnc(-c2ccco2)o1)c1ccc2c(c1)OCCO2` [CBK266387], the viability at 28.5 h, 10 µM was found to be 105%.

Regarding `O=C(CCSc1ccccc1)Nc1ccc(S(=O)(=O)N2CCOCC2)cc1` [CBK266568], the viability at 28.5 h, 10 µM was determined as 114%.

Take `Cc1ccc(SCCNS(=O)(=O)c2ccc(C)cc2)cc1` [CBK263564]: the viability at 28.5 h, 10 µM was 108%.

On to `COc1ccc2sc(N(Cc3cccnc3)C(=O)CCc3ccccc3)nc2c1` [CBK294423], for which the viability at 28.5 h, 10 µM was 81.2%.

Take `O=C(NCc1ccc2c(c1)OCO2)c1ccccc1CCc1ccccc1` [CBK268591]: the viability at 28.5 h, 10 µM was 107%.

Regarding `CCOC(=O)C1CCN(Cn2nc(-c3cccs3)oc2=S)CC1` [CBK295165], the viability at 28.5 h, 10 µM came to 85.9%.

On to `Cc1csc(C(Cc2ccsc2)NC(=O)c2ccnn2C)n1` (stereo not drawn) [CBK285107], for which the viability at 28.5 h, 10 µM turned out to be 104%.

Regarding `COC(C)(C(=O)Nc1ccc(Cl)nc1)c1cccc2ccccc12` (stereo not drawn) [CBK091350], the viability at 28.5 h, 10 µM was 102%.

For `O=C(Cn1c(=O)n(Cc2ccco2)c2ncccc21)N1CCCCC1` [CBK283862], the viability at 28.5 h, 10 µM is 89.2%.

As for `NS(=O)(=O)c1ccc(NC2=NC(=O)C(CC(=O)Nc3ccc(Br)cc3)S2)cc1` (stereo not drawn) [CBK266616], the viability at 28.5 h, 10 µM came out at 117%.

With `CC(C)Cn1c(SCC(=O)Nc2ccc(OC(F)F)cc2)nc(O)cc1=O` [CBK296679], the viability at 28.5 h, 10 µM worked out at 91.2%.

Consider `CCn1c2c(c(=O)[nH]c1=O)C(c1ccccc1)C1=C(COC1=O)N2` (stereo not drawn) [CBK287704], for which the viability at 28.5 h, 10 µM was determined as 95.6%.

For the molecule `O=C(CSc1nnc(Cc2ccccc2)o1)Nc1c(Cl)cc(Cl)cc1Cl` [CBK266119], the viability at 28.5 h, 10 µM was 99.8%.

As for `COc1ccccc1Nc1nc(C)cc(C)c1C(N)=O` [CBK287960], the viability at 28.5 h, 10 µM worked out at 82.7%.

Turning to `COc1cccc(C(=O)N2CCN(C(=O)Nc3ccc(C(F)(F)F)cc3)CC2)c1` [CBK154788], the viability at 28.5 h, 10 µM came out at 96.4%.

As to `Cc1cc(N2CCC(O)CC2)nc(N)n1` [CBK167265], the viability at 28.5 h, 10 µM stood at 109%.

`COc1ncc(-c2cccc(N(C)CCN(C)C)n2)c(OC)n1` [CBK037599]: the viability at 28.5 h, 10 µM is 99.1%.

With `CCN1CCc2nc(NC(=O)Cc3cn4ccsc4n3)sc2C1` [CBK304534], the viability at 28.5 h, 10 µM was 90%.

Consider `O=C(O)c1ccc(CN2CCOC[C@H]2c2nc(-c3ccc(C(F)(F)F)cc3)c[nH]2)cc1` [CBK289317], for which the viability at 28.5 h, 10 µM amounted to 115%.

Turning to `O=C1CCc2cc(S(=O)(=O)Nc3ccccc3-c3ccccc3)ccc2N1` [CBK286366], the viability at 28.5 h, 10 µM came out at 92.6%.

As for `N#C/C(=C\c1ccc(-c2cc(Cl)ccc2Cl)o1)C(=O)Nc1cccc2cccnc12` [CBK263082], the viability at 28.5 h, 10 µM was 110%.

As to `COc1ccc(C(C)C)cc1-c1nc(N)cc2cccnc12` [CBK081178], the viability at 28.5 h, 10 µM was 99.6%.

Turning to `O=C(O)c1cc(NC(=O)c2ccco2)cc(C(=O)O)c1` [CBK263360], the viability at 28.5 h, 10 µM was found to be 102%.

Take `CSc1ncc(Cl)c(C(=O)Nc2sc3c(c2C(=O)NCc2ccco2)CCCC3)n1` [CBK268971]: the viability at 28.5 h, 10 µM turned out to be 96.6%.

For `O=C(CSc1nnc(Cc2cccc3ccccc23)n1-c1ccccc1)N1CCc2ccccc21` [CBK266697], the viability at 28.5 h, 10 µM was 99.1%.

`Cc1cc(N2CCN(Cc3nc(C(C)(C)C)no3)CC2)nc(C(C)C)n1` [CBK305333]: the viability at 28.5 h, 10 µM is 96.3%.

For the molecule `Cn1cnc([N+](=O)[O-])c1Sc1cccs1` [CBK002620], the viability at 28.5 h, 10 µM is 90.6%.

On to `CCN1CCN(S(=O)(=O)c2cccc3c(S(=O)(=O)N4CCN(CC)CC4)cccc23)CC1` [CBK269611], for which the viability at 28.5 h, 10 µM came to 90.4%.

With `CC1CC(C)CN(C2CCN(Cc3ccccn3)CC2)C1` (stereo not drawn) [CBK264639G], the viability at 28.5 h, 10 µM is 99.4%.

As for `Cc1ccc(C2=CCN(CC(=O)N3CCCCC3C)CC2)o1` (stereo not drawn) [CBK283556], the viability at 28.5 h, 10 µM worked out at 86.8%.

In the case of `CC(C)NC(=O)[C@H]1CN(C(=O)c2cc[nH]n2)C[C@@H]1c1ccnc(N2CCCC2)n1` [CBK285526], the viability at 28.5 h, 10 µM amounted to 89.3%.

As for `CCOC(=O)C1=C(C)NC(=O)NC1c1cccs1` (stereo not drawn) [CBK086430], the viability at 28.5 h, 10 µM came to 78%.

As to `CCCNc1nc(-c2ccc(F)c(F)c2)cn2ccnc12` [CBK066573], the viability at 28.5 h, 10 µM turned out to be 94.8%.

For `C[C@H]1[C@@H]2[C@H]3OC(=O)[C@@H](C)[C@@H]3CC[C@@]2(C)CC[C@@H]1NC(=O)c1ccccn1` [CBK289452], the viability at 28.5 h, 10 µM was determined as 107%.

`CN1CCN(CC(O)COc2ccccc2)CC1` (stereo not drawn) [CBK278191G]: the viability at 28.5 h, 10 µM amounted to 83.8%.

For the molecule `O=C(Nc1cccc(C(=O)O)c1)/C(=C\c1ccc2c(c1)OCO2)NC(=O)c1ccccc1` [CBK263697], the viability at 28.5 h, 10 µM is 113%.

For `COc1ccccc1-c1ccc(NC(=O)C2(c3cccc(F)c3)CCOCC2)cc1` [CBK285747], the viability at 28.5 h, 10 µM was 103%.

Regarding `Cc1nn(Cc2ccccn2)c(=O)n2cccc12` [CBK283849], the viability at 28.5 h, 10 µM was found to be 95.1%.

Consider `NC(=O)C1(Cc2ccccc2-c2ccccc2)CCN(C(=O)CCc2ccccc2)CC1` [CBK285595], for which the viability at 28.5 h, 10 µM worked out at 107%.

On to `CCOC(=O)c1c(-c2ccccc2)oc2ccc(OCC(=O)NN)cc12` [CBK263826], for which the viability at 28.5 h, 10 µM was 91.8%.

Take `Cc1cc(Cl)c(S(=O)(=O)NCc2cccs2)cc1OCC(N)=O` [CBK266496]: the viability at 28.5 h, 10 µM is 101%.

With `Cc1ccc(NC(=S)NCCc2ccc(S(N)(=O)=O)cc2)c(C)c1` [CBK264870], the viability at 28.5 h, 10 µM is 93.9%.

As to `COC(=O)c1cc(NC(=O)NCCC2=CCCCC2)cc(C(=O)OC)c1` [CBK044120], the viability at 28.5 h, 10 µM turned out to be 90.9%.

On to `CCC(=O)N(C)[C@H]1CC[C@]2(CC1)CNC(=O)c1ccccc1O2` [CBK281683], for which the viability at 28.5 h, 10 µM turned out to be 87.5%.

With `O=C(O)CN(c1ccc([N+](=O)[O-])cc1)S(=O)(=O)c1ccccc1` [CBK263782], the viability at 28.5 h, 10 µM stood at 92.7%.

Regarding `COC(=O)c1cc(C#N)c(=O)n(CC(=O)N(C)Cc2ccsc2)c1` [CBK297788], the viability at 28.5 h, 10 µM stood at 115%.

In the case of `Clc1ccc(OC/C=C2\Oc3ccc(Cl)cc3C2N2CCOCC2)c(Cl)c1` (stereo not drawn) [CBK262753], the viability at 28.5 h, 10 µM came to 94.5%.

Regarding `O=C(Nc1cccc2nsnc12)c1cc(Cl)ccc1NS(=O)(=O)c1cccc2nsnc12` [CBK261129], the viability at 28.5 h, 10 µM was determined as 80.9%.

On to `O/N=C(\Cn1cncn1)c1ccc(Cl)cc1Cl` [CBK261085], for which the viability at 28.5 h, 10 µM was 93.5%.

With `COc1ccccc1NC(=O)N1C[C@@H]2C[C@H](C1)c1ccc(-c3cncnc3)c(=O)n1C2` [CBK289186], the viability at 28.5 h, 10 µM was 114%.

Regarding `C(=C\c1nccnc1OCCOc1ccccc1)/c1ccccc1` [CBK106885], the viability at 28.5 h, 10 µM stood at 91.6%.

For the molecule `FC(F)(F)c1ccnc(OCc2cccnc2)n1` [CBK115902], the viability at 28.5 h, 10 µM turned out to be 102%.

Turning to `C=CCn1c2ccccc2c2nnc(SCC(=O)Nc3c(C)n(C)n(-c4ccccc4)c3=O)nc21` [CBK263892], the viability at 28.5 h, 10 µM was 87.6%.

As for `Cc1cc(C)c(C)c(S(=O)(=O)NCCN2CCCCC2CO)c1C` (stereo not drawn) [CBK307333], the viability at 28.5 h, 10 µM stood at 90.4%.

Turning to `COc1cccc(CN2CCN(C(=O)C3(C)CC3(Cl)Cl)CC2)c1` (stereo not drawn) [CBK268121], the viability at 28.5 h, 10 µM is 96.7%.

With `CCCCN1CCN(S(=O)(=O)c2ccc(Br)cc2)CC1` [CBK144055], the viability at 28.5 h, 10 µM worked out at 99.1%.

With `COc1ccc(CNc2nc(-c3cccnc3)nn2C(=O)c2ccc([N+](=O)[O-])cc2)cc1` [CBK268966], the viability at 28.5 h, 10 µM came out at 98.9%.

As for `Fc1ccccc1CN(CCCn1ccnc1)CC1CCOC1` (stereo not drawn) [CBK283031], the viability at 28.5 h, 10 µM was found to be 104%.

Turning to `COc1ccc(CNC(=O)C[C@@H]2[C@H](O)CCC3[C@]4(C)CO[C@@H](CN)O[C@@H]4CC[C@]32C)cc1` (stereo partly drawn) [CBK289575], the viability at 28.5 h, 10 µM amounted to 109%.

`CC(C)c1ccc(NC(=O)O[C@@H]2CO[C@H]3[C@@H]2OC[C@@H]3NC(=O)C2CC2)cc1` [CBK289471]: the viability at 28.5 h, 10 µM is 99%.

The same data set, now with this note: human, hela cells, % viability, bulk resorufin, single well.
For the molecule `NCCc1c[nH]c2ccc(OCc3ccccc3)cc12` [CBK260980C], the viability at 28.5 h, 10 µM came out at 84.9%.

A word on the viability: it is a read-out of living cells in per cent, often relative to untreated cells.
